Square brackets hold non-standard residues; d marks the D form. Peptide text beside a SMILES is read from it. * marks the point of attachment. Dolaproine = CO[C@@H]([C@@H]1CCCN1)[C@@H](C)C(=O)O; Dil = CC[C@H](C)[C@H](NC)[C@@H](CC(=O)O)OC; X1 = C[C@@H](N*)[C@@H](O)c1ccccc1; NMeV = CN[C@H](C(=O)O)C(C)C
Assays:
[1] = tested on: acute myeloid leukemia (AML); conditions: administered alone; cited from earlier work
CD40 = CD40 (Homo sapiens, UniProt P25942); conditions: cited from earlier work
CD30+CD8 T cells = assay: Proliferation of activated CD30+CD8 T cells treated with CD30 directed vc-MMAE; type: cell-based, human; conditions: anti-CD3-CD28 beads + 10 ng/mL IL-2, 4 days; vs isotype control; FIG. 2
Protocol: Human primary CD8 T cells were labeled with CSFE and induced to undergo proliferation with anti-CD3-CD28 beads (1 bead per 4 T cells)+10 ng/mL IL-2 for 4 days. […] CD30+CD8 T cells were treated with either CD30 directed vc-MMAE (brentuximab vedotin; BV; SGN-35) or an isotype control. Cells were stained with LIVE/DEAD Fixable Dead Cell Stain (ThermoFisher) and live cells were counted via flow cytometry.

Farage cells = type: in vivo; conditions: single agent, SEA-CD70 3 mg/kg or SGN-35 1 mg/kg
A20 lymphoma cells = assay: Immunization with killed CD30-expressing A20 cells and A20 challenge (Example 24); type: in vivo; conditions: mice immunized 2 times with cells killed by the agent; compared to flash freezing; FIG. 24
Protocol: A20 cells expressing human CD30 were treated with CD30-Auristatin ADC (BV; SGN-35) or MMAE for 18 hrs. Alternatively, one aliquot of cells was f1ash frozen. Ficoll centrifugation of treated samples was performed to remove live cells. All samples were analyzed for apoptosis and viability by flow cytometry using annexin V/7AAD. Dying and dead cells were washed, resuspended in PBS, and intraperitoneally injected into mice. The mice were immunized 2 times, 7 days apart. Immunized mice rested for 7 additional days, and then were challenged with A20 lymphoma cells, and tumor growth or rejection was monitored over time.

CD40, sequence (P25942 21-277): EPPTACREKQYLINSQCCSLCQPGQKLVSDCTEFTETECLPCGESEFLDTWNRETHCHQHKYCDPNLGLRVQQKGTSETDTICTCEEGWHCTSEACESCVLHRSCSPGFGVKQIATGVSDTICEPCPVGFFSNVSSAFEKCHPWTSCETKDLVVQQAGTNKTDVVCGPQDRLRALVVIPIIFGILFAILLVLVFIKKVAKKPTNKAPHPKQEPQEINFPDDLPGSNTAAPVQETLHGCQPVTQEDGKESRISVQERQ

CT-011: anti-PD-1 antibody, a humanized antibody
response in treating acute myeloid leukemia (AML) at relapse [1]: failed to show response

CP-870,893: a humanized IgG2 agonist antibody to CD40
activity in solid tumor indications (CD40; combined with paclitaxel or carboplatin or gemcitabine): encouraging activity

Dacetuzumab: fucosylated humanized S2C6, agonistic CD40 monoclonal antibody
clinical activity (CD40; phase 1 study in NHL and phase 2 study in DLBCL): some clinical activity

SGN-35: CD30-targeting ADC containing MMAE conjugated to the monoclonal antibody cAC10 [reference compound]
cell proliferation of primary human CD30+CD8 T cells (CD30+CD8 T cells): not significantly altered
day at which tumors reached an average 5 fold increase of original size (Farage cells; day post implant, untreated 28.5): 46 days
days post treatment at which tumors reached an average 5 fold increase (Farage cells; untreated 9.5): 27 days post treatment
immune responses rejecting implanted A20 cells (A20 lymphoma cells): stronger immune responses

CC[C@H](C)[C@@H]([C@@H](CC(=O)N1CCC[C@H]1[C@H](OC)[C@@H](C)C(=O)N[C@H](C)[C@@H](O)c1ccccc1)OC)N(C)C(=O)[C@@H](NC(=O)[C@@H](NC)C(C)C)C(C)C [MMAE, N-methylvaline-valine-dolaisoleuine-dolaproine-norephedrine] (H-[NMeV]V[Dil][Dolaproine]-X1)
immune responses rejecting implanted A20 cells (A20 lymphoma cells): stronger immune responses

— US20230270877A1, “Combination Therapy” (Seagen Inc., priority 2020, published 2023)
